# In patent US20050112128A1, “Inhibition of protein kinase c-mu (PKD) as a treatment for cardiac hypertrophy and heart failure” (Myogen, Inc. and Board of Regents, The University of Texas …, priority 2003, published 2005):
# “Also recorded” adds a separate entry of the source. Where no end group is shown, it is not given here.
# What was measured:
# [1] = system: nuclear export of HDAC5 in COS cells; test: GFP-HDAC5 nuclear export in transfected COS cells (fluorescence microscopy); format: cell-based; conditions: COS cells transfected with GFP-HDAC5; 60 min after addition of compounds
# Method: FIGS. 1A-D—PKC-dependent nuclear export of HDAC5. FIG. 1A. COS cells were cultured on 6-well dishes, transfected with a GFP-HDAC5 expression vector (1 μg) and stimulated with the indicated compounds, as described in Materials and Methods. Sixty minutes after addition of compounds, GFP-HDAC5 distribution was determined by fluorescence microscopy. […] FIG. 1B. COS cells were transfected with expression vectors encoding FLAG-tagged versions of either HDAC5 or an HDAC5 mutant harboring alanines in place of serines 259 and 498 (HDAC5 S259/498A) (1 μg each). Cells were stimulated with PMA for 60 min and HDAC5 distribution was determined by indirect immunofluorescence with anti-FLAG primary antibody and fluorecein-conjugated secondary antibody. HDAC5 259/498A is refractory to PMA stimulation. FIG. 1C. COS cells transfected with GFPHDAC5 encoding expression vector (1 μg) and stimulated with PMA for the indicated times. FIG. 1D. COS cells were transiently transfected with expression vectors encoding FLAG-tagged versions of HDAC5 or HDAC5 S259/498A (1 μg each). Cells were pretreated with the PKC inhibitor bisindolylmaleimide (Bis I; 10 μM) for 30 minutes and stimulated with PMA for 30 min, as indicated. Association of FLAG-HDAC5 with endogenous 14-3-3 was detected by sequential immunoprecipitation and immunoblotting.
# Cell culture and transfection assays. COS cells were maintained in DMEM with FBS (10%), L-glutamine (2 mM), and penicillin-streptomycin. Transfection of COS cells was performed with Fugene 6 (Roche Molecular Biochemicals) according to manufacturer's instructions. For HDAC localization experiments, cells were treated 16-24 hours after transfection with PMA (100 nM), ionomycin […], 8-Br-cAMP (1 mM), pCPT-GMP (1 mM), or anisomycin (1 mM). Where noted, specific protein kinase inhibitors were added 30 min prior to the addition of any chemical stimulus. GFP-HDAC5 was visualized with standard fluorescent microscopic techniques. For indirect immunofluorescence of FLAG-HDAC5, COS cells were seeded on glass coverslips, transfected, and treated as above. After specific treatment, cells were fixed with buffered formalin (10%) and stained in PBS containing BSA (3%) and Nonidet P-40 (0.1%). Flag M2 antibody (Sigma) was used at a concentration of 1:200. Secondary fluoresceine-conjugated antibody (Vector Laboratories) was also used at a concentration of 1:200. Staining of cardiomyocytes for sarcomeres and atrial natriuretic factor (ANF) was performed by indirect immunofluorescence detection as above with antibodies directed against sarcomeric α-actinin (Sigma) and ANF (Peninsula Laboratories), respectively.
# [2] = system: nuclear export of GFP-HDAC5 in NRVMs; test: Quantitative HDAC5 nuclear export assay in NRVMs (Cellomics High Content Imaging System); format: cell-based, rat; conditions: 2 hrs; for block of PE-induced nuclear export of HDAC5: PE 20 μM, KN93, wortmannin, staurosporine 1 mM, U1026, HA1077, Y-27632, DAG Kinase inhibitor II, SB216763, Bis I 10 mM, rapamycin 30 ng/ml, Gö6983 10 μM
# HDAC5-bound PKD = format: biochemical, rat; conditions: NRVMs pre-treated 30 min with 10 μM inhibitor (pre-Bis I)
# PKD = target: T1, PKD (Homo sapiens, UniProt Q15139); conditions: literature (Van Lint 2002; Gschwendt 1996; Haworth); cited from earlier work
# T1 sequence (Q15139 1-912): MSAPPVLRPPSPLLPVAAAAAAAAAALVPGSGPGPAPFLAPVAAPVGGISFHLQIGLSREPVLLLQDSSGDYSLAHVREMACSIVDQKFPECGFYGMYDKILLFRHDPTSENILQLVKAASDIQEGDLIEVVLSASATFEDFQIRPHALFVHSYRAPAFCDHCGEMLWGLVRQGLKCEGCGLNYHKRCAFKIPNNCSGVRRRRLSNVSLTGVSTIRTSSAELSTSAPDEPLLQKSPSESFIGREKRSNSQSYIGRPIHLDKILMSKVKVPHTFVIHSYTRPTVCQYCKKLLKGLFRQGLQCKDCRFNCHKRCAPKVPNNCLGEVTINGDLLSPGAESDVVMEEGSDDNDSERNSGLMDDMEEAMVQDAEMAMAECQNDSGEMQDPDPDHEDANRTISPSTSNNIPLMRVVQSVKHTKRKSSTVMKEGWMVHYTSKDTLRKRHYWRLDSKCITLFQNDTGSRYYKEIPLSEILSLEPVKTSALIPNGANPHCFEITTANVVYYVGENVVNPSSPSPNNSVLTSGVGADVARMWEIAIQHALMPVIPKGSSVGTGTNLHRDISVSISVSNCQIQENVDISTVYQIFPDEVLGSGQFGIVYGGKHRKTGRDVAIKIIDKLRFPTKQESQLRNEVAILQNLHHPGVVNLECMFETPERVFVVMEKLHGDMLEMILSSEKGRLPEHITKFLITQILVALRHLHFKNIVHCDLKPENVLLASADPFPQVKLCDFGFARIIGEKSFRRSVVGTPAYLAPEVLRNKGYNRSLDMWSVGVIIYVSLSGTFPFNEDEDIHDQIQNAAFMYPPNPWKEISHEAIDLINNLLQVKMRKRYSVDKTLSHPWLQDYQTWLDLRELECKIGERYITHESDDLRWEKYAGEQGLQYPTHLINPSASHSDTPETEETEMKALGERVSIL
# [3] = NRVMs, inhibitor pre-treatment 30 min
compound,measurement,setting,value
Nc1ncnc2c1nc(Br)n2[C@@H]1O[C@@H]2COP(=O)(O)O[C@H]2[C@H]1O [8-Br-cAMP],stimulation of nuclear export of GFP-HDAC5,[1],only ionomycin and PMA stimulated nuclear export
"CN(C)CCCn1cc(C2=C(c3c[nH]c4ccccc34)C(=O)NC2=O)c2ccccc21 [Bis I, bisindolylmaleimide I]",block of ET-1-induced nuclear export of HDAC5,"[2]; NRVMs, ET-1 50 nM, inhibitor pre-treatment 30 min",had no effect
same,block of FBS-induced nuclear export of HDAC5,"[2]; NRVMs, FBS 10%, inhibitor pre-treatment 30 min",had no effect
same,block of PE-induced nuclear export of HDAC5,[2]; [3],effective in blocking PE-dependent export of HDAC5; also recorded: inhibitory effect on PE-dependent HDAC5 nuclear export; also recorded: effective in blocking HDAC5 nuclear export
same,"block of HDAC5 phosphorylation, inhibitor given to cells before PMA",HDAC5-bound PKD,Phosphorylation of HDAC5 was blocked
same,sensitivity of PKD to the inhibitor,PKD,not to Bis I or Gö6983
O=c1c2ccccc2[nH]c(=S)n1CCN1CCC(=C(c2ccc(F)cc2)c2ccc(F)cc2)CC1 [DAGK inhibitor II],block of PE-induced nuclear export of HDAC5,[2]; [3],did not significantly affect PE-induced nuclear export of HDAC5
CN(C)CCCn1cc(C2=C(c3c[nH]c4ccccc34)C(=O)NC2=O)c2ccccc21 [GF I],sensitivity of PKD to the inhibitor,PKD,insensitive
COc1ccc2c(c1)c(C1=C(c3c[nH]c4ccccc34)C(=O)NC1=O)cn2CCCN(C)C [Go6983],block of PE-induced nuclear export of HDAC5,[2]; [3],inhibiting HDAC5 nuclear export in response to PE
same,sensitivity of PKD to the inhibitor,PKD,not to Bis I or Gö6983
O=S(=O)(c1cccc2cnccc12)N1CCCNCC1 [HA1077],block of PE-induced nuclear export of HDAC5,[2]; [3],did not significantly affect PE-induced nuclear export of HDAC5
COc1ccc(S(=O)(=O)N(CCO)c2ccccc2CN(C)C/C=C/c2ccc(Cl)cc2)cc1 [KN93],block of PE-induced nuclear export of HDAC5,[2]; [3],did not significantly affect PE-induced nuclear export of HDAC5
Cn1cc(C2=C(c3cn(CCCSC(=N)N)c4ccccc34)C(=O)NC2=O)c2ccccc21 [Ro 31-8220],sensitivity of PKD to the inhibitor,PKD,insensitive
Cn1cc(C2=C(c3ccc(Cl)cc3Cl)C(=O)NC2=O)c2ccccc21 [SB216763],block of PE-induced nuclear export of HDAC5,[2]; [3],did not significantly affect PE-induced nuclear export of HDAC5
N#CC(=C(/N)Sc1ccccc1N)/C(C#N)=C(/N)Sc1ccccc1N [U1026],block of PE-induced nuclear export of HDAC5,[2]; [3],did not significantly affect PE-induced nuclear export of HDAC5
C[C@@H](N)[C@H]1CC[C@H](C(=O)Nc2ccncc2)CC1 [Y-27632],block of PE-induced nuclear export of HDAC5,[2]; [3],did not significantly affect PE-induced nuclear export of HDAC5
COc1ccc(C[C@H]2NC[C@H](O)[C@H]2OC(C)=O)cc1 [anisomycin],stimulation of nuclear export of GFP-HDAC5,[1],only ionomycin and PMA stimulated nuclear export
C[C@H](CCC(=O)O)C[C@H](C)C[C@H](C)C(=O)/C=C(\O)[C@H](C)C[C@H](C)C/C=C/[C@@H](C)[C@@H](O)[C@@H](C)[C@@H](O)C[C@@H]1CC[C@@](C)([C@H]2CC[C@@](C)([C@@H](C)O)O2)O1 [ionomycin],stimulation of nuclear export of GFP-HDAC5,[1],partial response; also recorded: stimulated nuclear export of GFP-HDAC5
Nc1nc2c(nc(Sc3ccc(Cl)cc3)n2[C@@H]2O[C@@H]3COP(=O)(O)O[C@H]3[C@H]2O)c(=O)[nH]1 [pCPT-GMP],stimulation of nuclear export of GFP-HDAC5,[1],only ionomycin and PMA stimulated nuclear export
CN[C@@H]1C[C@H]2O[C@@](C)([C@@H]1OC)n1c3ccccc3c3c4c(c5c6ccccc6n2c5c31)C(=O)NC4 [staurosporine],block of PE-induced nuclear export of HDAC5,[2]; [3],effective in blocking PE-dependent export of HDAC5; also recorded: effective in blocking HDAC5 nuclear export
"Endothelin-1 (CSCSSLMDKECVYFCHLDIIW; ends and bridges not checked; cysteine pairing not given here; UniProt P05305 53-73, looked up) [ET-1, hypertrophic agonist purchased from Sigma]",agonist-triggered nuclear export of HDAC5 in cardiomyocytes,"[2]; NRVMs infected with Ad-GFP-HDAC5, PE 0.1 to 20 μM, ET-1 50 nM, FBS 10%",effectively promote nuclear export of HDAC5
